According to patent US20100040734A1, “Cacao Husk-Derived Water-Soluble, Dietary Fiber, Process For Its Production, Foods and Beverages Containing It And Methods For Their Preparation” (FUJI OIL COMPANY, LIMITED, priority 2000, published 2010):

Assays:
Test in all cases: microbiostatic property by turbidity in standard liquid medium
Assay type in all cases: cell-based
Details in all cases: 35° C.
Escherichia coli = test system: Escherichia coli
Procedure: […] The turbidity was determined by measuring the absorbance at a wavelength of 610 nm (the spectrophotometer used was PTL-396S by JASCO Co., Ltd.), and the units for the turbidity were based on JIS1010.

Saccharomyces cerevisiae = test system: Saccharomyces cerevisiae
From the text: (§1) For evaluation of the shelf-life extending property (microbiostatic property), there was used a standard liquid medium (pH 7.2) containing the cacao husk-derived water-soluble dietary fiber of the invention at 0%, 0.5% or 1.0% with suitable amounts of shelf stability increasing substances, and using Escherichia coli, Aspergilius oryzae and Saccharomyces cerevisiae as the target strains. […] As the turbidity of the medium increases with growth of the cells, a test substance with a microbiostatic property will inhibit the cell growth and result in less turbidity. The turbidity was determined by measuring the absorbance at a wavelength of 610 nm (the spectrophotometer used was PTL-396S by JASCO Co., Ltd.), and the units for the turbidity were based on JIS1010.

Aspergillus oryzae = test system: Aspergillus oryzae
From the text: as §1

Work on `[Cl-].[Na+]` [Salt] yielded a turbidity (Escherichia coli; added at 1.0%, days stored 1) of 141 unit, a turbidity (Escherichia coli; added at 1.0%, days stored 2) of 524 unit and a turbidity (Escherichia coli; added at 2.0%, days stored 1) of 31 unit. It also gave a turbidity (Escherichia coli; added at 2.0%, days stored 2) of 353 unit, a turbidity (Saccharomyces cerevisiae; added at 1.0%, days stored 1) of 112 unit and a turbidity (Saccharomyces cerevisiae; added at 1.0%, days stored 2) of 425 unit. It also gave a turbidity (Saccharomyces cerevisiae; added at 2.0%, days stored 1) of 24 unit, a turbidity (Saccharomyces cerevisiae; added at 2.0%, days stored 2) of 377 unit and a turbidity (Aspergillus oryzae; added at 1.0%, days stored 1) of 99 unit. For the same molecule, the turbidity (Aspergillus oryzae; added at 1.0%, days stored 2) was 487 unit, the turbidity (Aspergillus oryzae; added at 2.0%, days stored 1) was 68 unit and the turbidity (Aspergillus oryzae; added at 2.0%, days stored 2) was 272 unit. For the same molecule, the turbidity (Aspergillus oryzae; added at 2.0%, days stored 3) was 429 unit.
For `O=C1O[C@H]([C@@H](O)CO)C([O-])=C1O.[Na+]` [Na ascorbate], the turbidity (Escherichia coli; added at 0.1%, days stored 1) was 115 unit, the turbidity (Escherichia coli; added at 0.1%, days stored 2) was 402 unit and the turbidity (Escherichia coli; added at 0.5%, days stored 1) was 18 unit. The turbidity (Escherichia coli; added at 0.5%, days stored 2) was 211 unit, the turbidity (Escherichia coli; added at 0.5%, days stored 3) was 315 unit and the turbidity (Escherichia coli; added at 0.5%, days stored 4) was 452 unit. For the same molecule, the turbidity (Saccharomyces cerevisiae; added at 0.1%, days stored 1) was 122 unit, the turbidity (Saccharomyces cerevisiae; added at 0.1%, days stored 2) was 391 unit and the turbidity (Saccharomyces cerevisiae; added at 0.5%, days stored 1) was 76 unit. For the same molecule, the turbidity (Saccharomyces cerevisiae; added at 0.5%, days stored 2) was 251 unit, the turbidity (Saccharomyces cerevisiae; added at 0.5%, days stored 3) was 433 unit and the turbidity (Aspergillus oryzae; added at 0.1%, days stored 1) was 107 unit. It also gave a turbidity (Aspergillus oryzae; added at 0.1%, days stored 2) of 370 unit, a turbidity (Aspergillus oryzae; added at 0.5%, days stored 1) of 58 unit and a turbidity (Aspergillus oryzae; added at 0.5%, days stored 2) of 178 unit. For the same molecule, the turbidity (Aspergillus oryzae; added at 0.5%, days stored 3) was 422 unit.
Glycerin fatty acid ester gave a turbidity (Escherichia coli; added at 0.01%, days stored 1) of 113 unit, a turbidity (Escherichia coli; added at 0.01%, days stored 2) of 415 unit and a turbidity (Escherichia coli; added at 0.05%, days stored 1) of 47 unit. For the same molecule, the turbidity (Escherichia coli; added at 0.05%, days stored 2) was 196 unit, the turbidity (Escherichia coli; added at 0.05%, days stored 3) was 305 unit and the turbidity (Escherichia coli; added at 0.05%, days stored 4) was 481 unit. For the same molecule, the turbidity (Saccharomyces cerevisiae; added at 0.01%, days stored 1) was 79 unit, the turbidity (Saccharomyces cerevisiae; added at 0.01%, days stored 2) was 281 unit and the turbidity (Saccharomyces cerevisiae; added at 0.01%, days stored 3) was 485 unit. It also gave a turbidity (Saccharomyces cerevisiae; added at 0.05%, days stored 1) of 38 unit, a turbidity (Saccharomyces cerevisiae; added at 0.05%, days stored 2) of 107 unit and a turbidity (Saccharomyces cerevisiae; added at 0.05%, days stored 3) of 375 unit. For the same molecule, the turbidity (Aspergillus oryzae; added at 0.01%, days stored 1) was 86 unit, the turbidity (Aspergillus oryzae; added at 0.01%, days stored 2) was 417 unit and the turbidity (Aspergillus oryzae; added at 0.05%, days stored 1) was 53 unit. It also gave a turbidity (Aspergillus oryzae; added at 0.05%, days stored 2) of 199 unit and a turbidity (Aspergillus oryzae; added at 0.05%, days stored 3) of 418 unit.
`CCO` [Ethanol] showed a turbidity (Escherichia coli; added at 0.05%, days stored 1) of 104 unit, a turbidity (Escherichia coli; added at 0.05%, days stored 2) of 441 unit and a turbidity (Escherichia coli; added at 0.1%, days stored 1) of 112 unit. For the same molecule, the turbidity (Escherichia coli; added at 0.1%, days stored 2) was 382 unit, the turbidity (Escherichia coli; added at 0.1%, days stored 3) was 455 unit and the turbidity (Saccharomyces cerevisiae; added at 0.05%, days stored 1) was 59 unit. The turbidity (Saccharomyces cerevisiae; added at 0.05%, days stored 2) was 251 unit, the turbidity (Saccharomyces cerevisiae; added at 0.05%, days stored 3) was 487 unit and the turbidity (Saccharomyces cerevisiae; added at 0.1%, days stored 1) was 36 unit. The turbidity (Saccharomyces cerevisiae; added at 0.1%, days stored 2) was 182 unit, the turbidity (Saccharomyces cerevisiae; added at 0.1%, days stored 3) was 411 unit and the turbidity (Aspergillus oryzae; added at 0.05%, days stored 1) was 17 unit. It also gave a turbidity (Aspergillus oryzae; added at 0.05%, days stored 2) of 128 unit, a turbidity (Aspergillus oryzae; added at 0.05%, days stored 3) of 328 unit and a turbidity (Aspergillus oryzae; added at 0.1%, days stored 1) of 10 unit. The turbidity (Aspergillus oryzae; added at 0.1%, days stored 2) was 112 unit, the turbidity (Aspergillus oryzae; added at 0.1%, days stored 3) was 251 unit and the turbidity (Aspergillus oryzae; added at 0.1%, days stored 4) was 475 unit.
